Tested on: KM mice
Experiment: Test for drug-induced disappearance of righting reflex in mice
Format: in vivo
Conditions: single rapid bolus via tail vein
Source text: In anesthetic drug experiments, latency generally refers to the time from the start of administration to the loss of consciousness of the subject. The shorter latency is preferred, indicating a rapid onset of action after administration. The duration of anesthesia generally refers to the duration of time from the loss of consciousness to the restoration of consciousness of the subject. The duration of the drug will vary from animal model to animal species. Too long anesthesia may produce adverse cardiovascular and respiratory responses, such as adverse neurological effects to the subject, including sleepiness and dizziness; meanwhile, too short duration of anesthesia may affect the anesthesia effect, causing problems such as increase of anesthesia dosage during the operation.
KM mice (female, 18-25 g) were randomly grouped and subjected to a single administration by rapid bolus via the tail vein. The latency and duration of disappearance of righting reflex in the mice were recorded.

Structure (SMILES)	Duration (30 mg/kg) [min]	Latency (30 mg/kg) [min]	Duration (60 mg/kg) [min]	Latency (60 mg/kg) [min]
CCCSc1nnc2n1-c1ccc([N+](=O)[O-])cc1C(c1ccccc1F)=N[C@H]2CCC(=O)OC [Compound 16, methyl (S)-3-(8-nitro-6-(2-fluorophenyl)-1-(propylthio)-4H-benzo[f][1,2,4]triazolo[4,3-a][1,4]diazepin-4-yl)propionate]	6.25	0.79	6.6	0.28
COC(=O)CC[C@@H]1N=C(c2ccccc2F)c2cc(Cl)ccc2-n2c(SCCO)nnc21 [Compound 17, methyl (S)-3-(8-chloro-6-(2-fluorophenyl)-1-((2-hydroxyethyl)thio)-4H-benzo[f][1,2,4]triazolo[4,3-a][1,4]diazepin-4-yl)propionate]	15.35	1.09	–	–
COC(=O)CC[C@@H]1N=C(c2ccccc2F)c2cc(Br)ccc2-n2c(SCCO)nnc21 [Compound 18, methyl (S)-3-(8-bromo-6-(2-fluorophenyl)-1-((2-hydroxyethyl)thio)-4H-benzo[f][1,2,4]triazolo[4,3-a][1,4]diazepin-4-yl)propionate]	4.74	0.31	9.16	0.33
COC(=O)CC[C@@H]1N=C(c2ccccc2F)c2cc([N+](=O)[O-])ccc2-n2c(SCCO)nnc21 [Compound 19, methyl (S)-3-(8-nitro-6-(2-fluorophenyl)-1-((2-hydroxyethyl)thio)-4H-benzo[f][1,2,4]triazolo[4,3-a][1,4]diazepin-4-yl)propionate]	16.22	0.89	–	–
COC(=O)CC[C@@H]1N=C(c2ccccc2F)c2cc(Cl)ccc2-n2c(SCCN)nnc21 [Compound 20, methyl (S)-3-(8-chloro-6-(2-fluorophenyl)-1-((2-aminoethyl)thio)-4H-benzo[f][1,2,4]triazolo[4,3-a][1,4]diazepin-4-yl)propionate]	9.82	0.27	–	–
COC(=O)CC[C@@H]1N=C(c2ccccc2F)c2cc(Br)ccc2-n2c(SCCN)nnc21 [Compound 21, methyl (S)-3-(8-bromo-6-(2-fluorophenyl)-1-((2-aminoethyl)thio)-4H-benzo[f][1,2,4]triazolo[4,3-a][1,4]diazepin-4-yl)propionate]	2.83	0.35	6.4	0.2
COC(=O)CC[C@@H]1N=C(c2ccccc2F)c2cc([N+](=O)[O-])ccc2-n2c(SCCN)nnc21 [Compound 22, methyl (S)-3-(8-nitro-6-(2-fluorophenyl)-1-((2-aminoethyl)thio)-4H-benzo[f][1,2,4]triazolo[4,3-a][1,4]diazepin-4-yl)propionate]	6.53	0.58	–	–
CCSc1nnc2n1-c1ccc(Br)cc1C(c1ccccc1Cl)=N[C@H]2CCC(=O)OC [Compound 27, methyl (S)-3-(8-bromo-6-(2-chlorophenyl)-1-(ethylthio)-4H-benzo[f][1,2,4]triazolo[4,3-a][1,4]diazepin-4-yl)propionate]	5.93	0.35	–	–
CCSc1nnc2n1-c1ccc([N+](=O)[O-])cc1C(c1ccccc1Cl)=N[C@H]2CCC(=O)OC [Compound 28, methyl (S)-3-(8-nitro-6-(2-chlorophenyl)-1-(ethylthio)-4H-benzo[f][1,2,4]triazolo[4,3-a][1,4]diazepin-4-yl)propionate]	–	–	4.24	0.46
CCCSc1nnc2n1-c1ccc([N+](=O)[O-])cc1C(c1ccccc1Cl)=N[C@H]2CCC(=O)OC [Compound 31, methyl (S)-3-(8-nitro-6-(2-chlorophenyl)-1-(propylthio)-4H-benzo[f][1,2,4]triazolo[4,3-a][1,4]diazepin-4-yl)propionate]	8.98	2.85	–	–
COC(=O)CC[C@@H]1N=C(c2ccccc2Cl)c2cc(Cl)ccc2-n2c(SC(C)=O)nnc21 [Compound 38, methyl (S)-3-(8-chloro-6-(2-chlorophenyl)-1-(acetylthio)-4H-benzo[f][1,2,4]triazolo[4,3-a][1,4]diazepin-4-yl)propionate]	12.94	0.67	–	–
COC(=O)CC[C@@H]1N=C(c2ccccc2Cl)c2cc([N+](=O)[O-])ccc2-n2c(SC(C)=O)nnc21 [Compound 40, methyl (S)-3-(8-nitro-6-(2-chlorophenyl)-1-(acetylthio)-4H-benzo[f][1,2,4]triazolo[4,3-a][1,4]diazepin-4-yl)propionate]	8.94	0.37	–	–
CCOC(=O)CC[C@@H]1N=C(c2ccccc2Cl)c2cc(Cl)ccc2-n2c(S)nnc21 [Compound 41, ethyl (S)-3-(8-chloro-6-(2-chlorophenyl)-1-mercapto-4H-benzo[f][1,2,4]triazolo[4,3-a][1,4]diazepin-4-yl)propionate]	–	–	8.59	0.40
CCOC(=O)CC[C@@H]1N=C(c2ccccc2Cl)c2cc(Cl)ccc2-n2c(SC)nnc21 [Compound 42, ethyl (S)-3-(8-chloro-6-(2-chlorophenyl)-1-(methylthio)-4H-benzo[f][1,2,4]triazolo[4,3-a][1,4]diazepin-4-yl)propionate]	4.68	0.65	–	–
CCOC(=O)CC[C@@H]1N=C(c2ccccc2Cl)c2cc(Br)ccc2-n2c(SC)nnc21 [Compound 43, ethyl (S)-3-(8-bromo-6-(2-chlorophenyl)-1-(methylthio)-4H-benzo[f][1,2,4]triazolo[4,3-a][1,4]diazepin-4-yl)propionate]	12.38	0.38	7.25	0.84
CCOC(=O)CC[C@@H]1N=C(c2ccccc2Cl)c2cc([N+](=O)[O-])ccc2-n2c(SC)nnc21 [Compound 44, ethyl (S)-3-(8-nitro-6-(2-chlorophenyl)-1-(methylthio)-4H-benzo[f][1,2,4]triazolo[4,3-a][1,4]diazepin-4-yl)propionate]	16.27	1.28	–	–
COC(=O)CC[C@@H]1N=C(c2ccccc2F)c2cc(Cl)ccc2-n2c(SCC3CC3)nnc21 [Compound 45, methyl (S)-3-(8-chloro-1-((cyclopropylmethyl)thio)-6-(2-fluorophenyl)-4H-benzo[f][1,2,4]triazolo[4,3-a][1,4]diazepin-4-yl)propionate]	11.37	0.65	–	–
COC(=O)CC[C@@H]1N=C(c2ccccc2F)c2cc(Br)ccc2-n2c(SCC3CC3)nnc21 [Compound 46, methyl (S)-3-(8-bromo-1-((cyclopropylmethyl)thio)-6-(2-fluorophenyl)-4H-benzo[f][1,2,4]triazolo[4,3-a][1,4]diazepin-4-yl)propionate]	10.83	0.69	–	–
COC(=O)CC[C@@H]1N=C(c2ccccc2F)c2cc([N+](=O)[O-])ccc2-n2c(SCC3CC3)nnc21 [Compound 47, methyl (S)-3-(8-nitro-1-((cyclopropylmethyl)thio)-6-(2-fluorophenyl)-4H-benzo[f][1,2,4]triazolo[4,3-a][1,4]diazepin-4-yl)propionate]	–	–	10.52	0.82
C#CCSc1nnc2n1-c1ccc(Cl)cc1C(c1ccccc1F)=N[C@H]2CCC(=O)OC [Compound 48, methyl (S)-3-(8-chloro-6-(2-fluorophenyl)-1-(prop-2-yn-1-ylthio)-4H-benzo[f][1,2,4]triazolo[4,3-a][1,4]diazepin-4-yl)propionate]	–	–	8.54	1.25
C#CCSc1nnc2n1-c1ccc(Br)cc1C(c1ccccc1F)=N[C@H]2CCC(=O)OC [Compound 49, methyl (S)-3-(8-bromo-6-(2-fluorophenyl)-1-(prop-2-yn-1-ylthio)-4H-benzo[f][1,2,4]triazolo[4,3-a][1,4]diazepin-4-yl)propionate]	9.65	0.73	–	–
C#CCSc1nnc2n1-c1ccc([N+](=O)[O-])cc1C(c1ccccc1F)=N[C@H]2CCC(=O)OC [Compound 50, methyl (S)-3-(8-nitro-6-(2-fluorophenyl)-1-(prop-2-yn-1-ylthio)-4H-benzo[f][1,2,4]triazolo[4,3-a][1,4]diazepin-4-yl)propionate]	15.27	0.93	–	–
CCN(CC)CCSc1nnc2n1-c1ccc(Cl)cc1C(c1ccccc1F)=N[C@H]2CCC(=O)OC [Compound 54, methyl (S)-3-(8-chloro-1-((2-(diethylamino)ethyl)thio)-6-(2-fluorophenyl)-4H-benzo[f][1,2,4]triazolo[4,3-a][1,4]diazepin-4-yl)propionate]	6.83	0.24	–	–
CCN(CC)CCSc1nnc2n1-c1ccc(Br)cc1C(c1ccccc1F)=N[C@H]2CCC(=O)OC [Compound 55, methyl (S)-3-(8-bromo-1-((2-(diethylamino)ethyl)thio)-6-(2-fluorophenyl)-4H-benzo[f][1,2,4]triazolo[4,3-a][1,4]diazepin-4-yl)propionate]	13.84	0.74	–	–
CCN(CC)CCSc1nnc2n1-c1ccc([N+](=O)[O-])cc1C(c1ccccc1F)=N[C@H]2CCC(=O)OC [Compound 56, methyl (S)-3-(8-nitro-1-((2-(diethylamino)ethyl)thio)-6-(2-fluorophenyl)-4H-benzo[f][1,2,4]triazolo[4,3-a][1,4]diazepin-4-yl)propionate]	10.22	0.92	–	–
